Data: patent US20110039935A1, “USE OF PHARMACOLOGICALLY ACTIVE CHEMICAL COMPOUNDS” (ENTRESS AB, priority 2007, published 2011)
“Also recorded” adds a separate entry of the source.

Experiments:
[1] = system: abdominal aorta sections of bypass and sham operated rats; assay: Elastic recoil of aorta sections from bypass- and sham-operated rats given AKG; type: in vivo, Sprague Dawley rats
Description: A dissected portion of the abdominal aorta, prior to the right- and left common iliac arteries, was carefully cleaned to remove adhering tissues.
Force was measured using a FTO3 force displacement transducer (Grass Instrument, West Warwick, R.I.) connected to a home-built bridge amplifier which was interfaced with a 8S PowerLab A/D Converter (ADInstruments, Chalgrove, Oxfordshire, UK).
The recorded signal was adjusted to zero for un-tensioned aorta sections with the aid of an offset dial mounted on the pre-amplifier unit. Each aorta section was then exposed to approx. 5 step-wise increases in tension (each step being approx. 0.09 N), until a final maximal tension of 0.49 N (measured using the FT03 Grass Force transducer) was achieved. […] Aorta sections were subsequently removed and weighed.
(§1) LaPlace's equation assumes the tension (T) in the wall of a hollow cylinder is directly proportional to the cylinders radius (r) and the pressure (p) across the wall, caused by the flow inside the cylinder, such that T=p×r. If one assumes that the tension in the wall of the aorta sections is equivalent to that recorded by the force transducer as the result of a manual stretch, then the pressure that would have given rise to such an increase in tension can be calculated using LaPlace's equation and the measured radius of each aorta section.
Data are presented as mean±SE.

[2] = system: excised aorta sections of elderly mice; assay: Robustness of aorta sections to stretch (successful stretches without rupture); type: in vivo, NMRI mice; conditions: for number of successful stretches without rupture, First Replicate / number of successful stretches without rupture, Second Replicate: 0.49 N max. tension stepwise, control 4 out of 6; for successful stretches without rupture, Mean (%): mean of two replicates, control 66.7
Description: (§2) Female NMRI mice, aged 50 weeks at the start of the trial, were housed at the animal facilities of the Department of Cell & Organism Biology, Lund University, Sweden. The animals were raised under the same conditions with a 12/12 hour light-dark cycle. Mice were fed rodent pellets ad libitum (Altromin no. 1314 Spezialfutterwerke, Lage, Germany) and given free access to drinking water. […] Mice in Group 1 were fed rodent pellets plus (2% w/v) Na2−AKG 2H2O (n=6), whilst mice in Group 2 were fed rodent pellets plus (2% w/v) Ca−AKG H2O (n=6). Mice allocated to Group 3 were only fed rodent pellets and were considered to be the Control group (n=6). The level of AKG fed as a supplement to the diet represented 2% of the voluntary feed intake of the mice, which was approx. 10-15% of body weight per day.
(§3) Aorta sections were suspended vertically, and in duplicate. The recorded signal was adjusted to zero for un-tensioned aorta sections with the aid of an offset dial mounted on the pre-amplifier unit. Each aorta section was then exposed to approx. 5 step-wise increases in tension (each step being approx. 0.09 N), until a final maximal tension of 0.49 N (measured using the FT03 Grass Force transducer) was achieved. This final level of tension was by no means close to the physiological maximum force recorded in aorta sections. The aorta sections were then allowed to relax totally before being exposed to repeat step-wise increases in tension a further two more times, in close succession. Aorta sections were subsequently removed and weighed.
In all the arteries studied, the initial stretch series (e.g. application of tension followed by relaxation) led to a decrease in elasticity with subsequent applications of tension. This effect may be compared to the sort of damage that would be expected to arise with a sudden increase in blood pressure (see FIG. 5).

[3] = system: abdominal aorta sections of elderly mice; conditions: for elasticity of aorta sections (elastic recoil), first series of stretches: control 3.3×10^−5; for decrease in elastic recoil, second versus first series: repeated stretching protocol, control approximately 90%
Description: This time, experimental subjects that were in need of increased artery elasticity for a more general reason, namely advanced age, were studied.
as §2, with “Mice” for “Mice in Group 1 were fed rodent pellets plus (2% w/v) Na2−AKG 2H2O (n=6), whilst mice in Group 2 were fed rodent pellets plus (2% w/v) Ca−AKG H2O (n=6). Mice”
The mice were anaesthetized by exposure to 95% CO2 and killed by cervical dislocation. A dissected portion of the abdominal aorta, prior to the right- and left common iliac arteries, was carefully cleaned to remove adhering tissues. The aorta was cut into approx. 4.5 mm pieces with a diameter at rest of approx. 1 mm, and each piece was then securely attached at one end to a force transducer and at the other to a metal pin on a mounting block, as described in part (Harrison et al. Reprod Fertil Dev. 1997; 9(7):731-40, Harrison and Flatman Am J Physiol. 1999 December; 277(6 Pt 2):R1646-53).
Aorta sections were immersed into oxygenated and thermostatically controlled chambers (37° C.), having an internal depth and diameter of 5.5 and 3.2 cm, respectively, and holding 44 ml of phosphate buffered saline (0.15 M PBS, pH 7.4) comprising in mM; NaCl 136.91, KCl 2.68, Na2HPO4 8.08 and NaH2PO4 1.66. Force was measured using a FTO3 force displacement transducer (Grass Instrument, West Warwick, R.I.) connected to a home-built bridge amplifier which was interfaced with a 8S PowerLab A/D Converter (ADInstruments, Chalgrove, Oxfordshire, UK). […] The PowerLab 8S A/D converter was connected to an iBook G4 running Chart v.5.4 Software (AD Instruments, Australia). The data recording was at a sampling speed of 40.000 data samples per second (40 KHz) and the input impedance of the amplifier was 200 MΩ differential
as §3, with “This final level of tension was by no means close to the physiological maximum force recorded in aorta sections.” left out
This fall in the recording trace was measured over time using the Average Slope calculation available as part of Chart v.5.4 Software (AD Instruments, Australia).
as §1

[4] = elderly mice fed 2% w/v in pellets for 182 days, n=6, mean±SE

| SMILES | effect of AKG-intake on arterial elasticity in bypass-operated rats ([1]; B+AKG versus B−AKG, P=0.047) | effect of AKG-intake on aorta elasticity in sham-operated control rats ([1]; S+AKG versus S−AKG, P=0.44) | number of successful stretches without rupture, First Replicate [2] | number of successful stretches without rupture, Second Replicate [2] | successful stretches without rupture, Mean (%) [2] [%] | elasticity of aorta sections (elastic recoil), first series of stretches [3, 4] | effect compared to Na−AKG group ([3]; elderly mice, arterial elasticity) | effect on arterial elasticity compared with the control mice ([3]; elderly mice, first stretch series (FIG. 4)) | decrease in elastic recoil, second versus first series [3] [%] | uptake after enteral administration | elasticity of aorta sections (elastic recoil), second series of stretches ([3]; elderly mice fed 2% w/v in pellets for 182 days, n=6, mean±SE, control 3.4×10^−6) |
| --- | --- | --- | --- | --- | --- | --- | --- | --- | --- | --- | --- |
| O=C(O)CCC(=O)C(=O)O [AKG, alpha-ketoglutaric acid] | significant effect; also recorded: positive effect | no effect | – | – | – | – | – | – | – | – | – |
| O=C([O-])CCC(=O)C(=O)[O-].[Ca+2] [Ca−AKG, calcium alpha-ketoglutarate] | – | – | 4 out of 6 | 5 out of 6 | 75.0 | 6.4×10^−5±2.7×10^−6 N ms^−1 mg^−1 wet wt | better effects | significant effect | 94 | – | – |
| O=C([O-])CCC(=O)C(=O)[O-].[Na+].[Na+] [Na−AKG, sodium alpha-ketoglutarate] | – | – | 4 out of 6 | 5 out of 6 | 75.0 | 4.3×10^−5±1.6×10^−6 N ms^−1 mg^−1 wet wt | – | – | 91 | faster uptake after enteral administration with higher peak blood levels | 3.7×10^−6±1.1×10^−6 N ms^−1 mg^−1 wet wt |
